The target of the experiment is BTK (Homo sapiens, UniProt Q06187). Nature of the experiment: biochemical. The settings on record: read-out: BTK inhibition (%), 0.75 uM BTK, […] probe 3l, 15 min preincubation.

The values that follow come from publication PMC8041284, “Tunable Methacrylamides for Covalent Ligand Directed Release Chemistry” (Journal of the American Chemical Society, 2021).

SMILES strings stand for the structures.

What is called inhibition is the drop in the measured response relative to a control, in per cent.

BTK, sequence (Q06187 402-655 limits assumed): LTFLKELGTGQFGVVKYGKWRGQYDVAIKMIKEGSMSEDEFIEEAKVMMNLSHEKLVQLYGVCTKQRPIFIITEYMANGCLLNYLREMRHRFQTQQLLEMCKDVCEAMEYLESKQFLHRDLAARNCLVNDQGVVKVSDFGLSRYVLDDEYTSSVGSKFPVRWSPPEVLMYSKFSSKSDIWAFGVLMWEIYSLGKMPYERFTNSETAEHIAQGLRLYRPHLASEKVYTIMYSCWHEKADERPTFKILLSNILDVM

On to `N#Cc1c(Oc2ccc(F)c(NC(=O)Cc3cccc(C(F)(F)F)c3)c2)ccc2nc(NC(=O)C3CC3)sc12` [PCM-0215264], for which the inhibition at 10 µM stood at 37.9%.

In the case of `Clc1ccc(N/N=C(\c2ccccc2)c2ccccn2)nc1` [PCM-0215265], the inhibition at 10 µM came to 6.2%. `CCC(CC)(NC(=O)C(C)C)C(=O)N[C@@H](CCCN=C(N)N)C(=O)NC1(C(=O)NC(c2ccc(F)cc2)c2ccc(F)cc2)CCCC1` [PCM-0215267]: the inhibition at 10 µM is -14.7%.

Take `C1=C/COCc2cc(ccc2OCCN2CCCC2)Nc2nccc(n2)-c2cccc(c2)COC/1` [PCM-0215268]: the inhibition at 10 µM was 71.7%. On to `Cc1cc(/C=C/C#N)cc(C)c1Nc1ccnc(Nc2ccc(C#N)cc2)n1` [PCM-0215269], for which the inhibition at 10 µM is 19.3%. Regarding `Cc1ccc(S(=O)(=O)Cc2nc(-c3ccc(C(=O)NCc4cccnc4)cc3)oc2C)cc1` [PCM-0215271], the inhibition at 10 µM was -4.6%.

Consider `COc1ccc(-n2c(C)c([N+](=O)[O-])c3ccc(O)cc32)cc1` [PCM-0215272], for which the inhibition at 10 µM was 23.4%. To `COc1cc(N2CCC(N3CCN(C)CC3)CC2)ccc1Nc1ncnc(Nc2ccccc2S(=O)(=O)C(C)C)n1` [PCM-0215273] belongs 89%; to `Cc1cc(-c2ncc(CC(=O)Nc3ccc(-c4cnccn4)cn3)cc2C)ccn1` [PCM-0215274], 1.5%. Next, `Cc1cc(=O)oc2c(C=O)c(O)ccc12` [PCM-0215276]: 82.6%; `C=CC(=O)Nc1cccc(Nc2nc(Nc3ccc(Oc4ccnc(C(=O)NC)c4)cc3)ncc2F)c1` [PCM-0215277]: 115%.

Regarding `O=C(CSc1nc2c(c(=O)n1-c1ccccc1)SCC2)Nc1ccc(-c2ccccc2)cn1` [PCM-0215278], the inhibition at 10 µM is -8.5%. On to `O=C(COc1ccc(C(=O)c2ccccc2)cc1)NC1CCN(Cc2ccccc2)CC1` [PCM-0215280], for which the inhibition at 10 µM is -33.2%.

Take `O=C(c1cccc(Cl)c1F)N1CCN(Cc2cccc(Nc3nccs3)n2)CC1` [PCM-0215281]: the inhibition at 10 µM worked out at 68.3%.

As to `O=C(O)/C(Cc1ccccc1[N+](=O)[O-])=N/Nc1nc(-c2ccc(Cl)c(Cl)c2)cs1` [PCM-0215282], the inhibition at 10 µM turned out to be 54.8%. To `CN(C)C(=O)c1cc2cnc(Nc3ccc(N4CCNCC4)cn3)nc2n1C1CCCC1` [PCM-0215283] belongs -7.7%. To `CCOC(=O)[C@H]1O[C@@H]1C(=O)N[C@@H](CC(C)C)C(=O)NCCC(C)C` [PCM-0215286] belongs 14.7%; to `COc1cc2ncnc(Sc3nnc(C)s3)c2cc1OC` [PCM-0215288], 5.5%; to `O=C1Cc2c([nH]c3ccc(Br)cc23)-c2ncccc2N1` [PCM-0215289], -2.1%. For the molecule `Cc1ccc(Cl)cc1N(CC(=O)Nc1c(F)cccc1F)S(C)(=O)=O` [PCM-0215291], the inhibition at 10 µM stood at 0.8%.

Regarding `O=C(O)CC1CC(c2ccccc2)=NO1` (centres unmarked) [PCM-0215292], the inhibition at 10 µM is -2.1%. On to `Cc1c(C(=O)Nc2ccc(N3CCC(N4CCOCC4)CC3)c(C#N)c2)cnn1-c1ccc(Cl)cc1` [PCM-0215293], for which the inhibition at 10 µM was -11.7%. Next, `CCCCN(Cc1ccc(C(=O)NO)cc1)C(=O)Nc1ccccc1` [PCM-0215294]: 23.9%.

With `CN(C)C(=O)c1ccc(S(=O)(=O)c2ccc(NC(=O)[C@@](C)(O)C(F)(F)F)c(Cl)c2)cc1` [PCM-0215295], the inhibition at 10 µM was 3.1%. To `Cc1ccc(CNc2ncnc3ccc(-c4ccc(CO)o4)cc23)o1` [PCM-0215296] belongs 6.9%; to `COc1ccc(-c2cnc3c(-c4cccc5ncccc45)cnn3c2)cc1` [PCM-0215297], -2.3%; to `CCNC(=O)c1[nH]nc(-c2cc(Cl)c(O)cc2O)c1-c1ccc(OC)cc1` [PCM-0215298], 21.6%. To `CC(C)Oc1ccc(-c2cnc3c(-c4ccnc5ccccc45)cnn3c2)cc1` [PCM-0215300] belongs -1.5%; to `O=C(c1cn(Cc2cncn2Cc2ccc(Br)cc2)cc1-c1cccc2ccccc12)N1CCOCC1` [PCM-0215301], -4.6%. Next, `CC(C)CCNC(=O)[C@H](CC(C)C)NC(=O)[C@H]1O[C@@H]1C(=O)O` [PCM-0215302]: -16.2%; `COC(=O)CNC(=O)C(=O)OC` [PCM-0215303]: 3.9%. Consider `CN1CCC(NC(=O)c2cc(-c3c(O)cc(O)cc3Oc3ccc([N+](=O)[O-])cc3)on2)CC1` [PCM-0215304], for which the inhibition at 10 µM was -10.8%.

`C=CC(=O)Nc1cc(Nc2nccc(-c3cn(C)c4ccccc34)n2)c(OC)cc1N(C)CCN(C)C` [PCM-0215305]: the inhibition at 10 µM worked out at 80.7%. For the molecule `Cc1cc(N2CCOCC2)ccc1Nc1nc(NC2CCCCC2)c2[nH]cnc2n1` [PCM-0215306], the inhibition at 10 µM was 33.2%. For the molecule `O=C1/C(=C/c2cccs2)CC/C1=C\c1cccs1` [PCM-0215307], the inhibition at 10 µM was 6%. To `CC[C@@H]1/C=C(\C)C[C@H](C)C[C@H](OC)[C@H]2O[C@@](O)(C(=O)C(=O)N3CCCC[C@H]3C(=O)O[C@H](/C(C)=C/[C@@H]3CC[C@@H](O)[C@H](OC)C3)[C@H](C)[C@@H](O)CC1=O)[C@H](C)C[C@@H]2OC` [PCM-0215308] belongs 6.9%; to `CN([C@@H](Cc1ccc(OS(=O)(=O)c2cccc3cnccc23)cc1)C(=O)N1CCN(c2ccccc2)CC1)S(=O)(=O)c1cccc2cnccc12` [PCM-0215309], 2.1%; to `O=C(/C=C/c1ccc2ccccc2n1)c1ccncc1` [PCM-0215310], 11.7%. To `CCOC(=O)c1cnc2ccc(-c3cncc(NS(=O)(=O)c4ccccc4)c3)cn12` [PCM-0215311] belongs -4.1%. Next, `CC(C)Oc1ccc(C(=O)N[C@H](CNC(=O)CN(C)C)Cc2ccc(-c3cn4cccc([C@H](C)O)c4n3)cc2)cc1Cl` [PCM-0215312]: -30.9%; `CC(NC(=O)[C@H](Cc1ccccc1)NC(=O)OCc1ccccc1)C(=O)CF` (some centres unmarked) [PCM-0215313]: -3.1%; `CC(=O)OCOC(=O)CN(CC(=O)OCOC(C)=O)c1ccccc1OCCOc1ccccc1N(CC(=O)OCOC(C)=O)CC(=O)OCOC(C)=O` [PCM-0215314]: -27.8%. `COc1ccc(-n2c(SCCCN3C(=O)c4cccc5cccc(c45)C3=O)nnc2-c2ccncc2)cc1` [PCM-0215315]: the inhibition at 10 µM was -9.3%.

Consider `O=C(O)c1ccc(O)c2ncccc12` [PCM-0215316], for which the inhibition at 10 µM is -4.6%. Take `CCNC(=O)c1noc(-c2cc(Cl)c(O)cc2O)c1-c1ccc(OC)cc1` [PCM-0215317]: the inhibition at 10 µM is 11.6%. To `Cc1c(-c2ccnn2C)cc(C(=O)NCc2ccc(S(C)(=O)=O)cn2)c(=O)n1-c1cccc(C(F)(F)F)c1` [PCM-0215318] belongs -3.1%; to `CCCCNc1ncc(C(=O)NCc2ccc(-n3ccnc3)cc2)c(NC2CCC(O)CC2)n1` (centres unmarked) [PCM-0215319], 2.1%. Next, `Cc1ccc(-c2csc(NC(=O)c3ccccc3)n2)c(C)c1` [PCM-0215320]: 60.2%. Consider `CN1CCCN(C(=O)c2cccc(-c3ccc(/C=C4/C(=O)Nc5ccc(Cl)cc54)o3)c2)CC1` [PCM-0215321], for which the inhibition at 10 µM worked out at 26.9%. Next, `CN1CCC(COc2cnc(-c3cccc(Cn4nc(-c5cccc(C#N)c5)ccc4=O)c3)nc2)CC1` [PCM-0215322]: 22.1%.
